Reference: US20250042922A1, “KRAS MODULATING COMPOUNDS” (priority 2023, published 2025)

Experiments:
[1] = test system: cellular pERK in Kuramochi (WT KRAS) cells; experiment: Cell based pERK assay, Kuramochi; conditions: Kuramochi (WT KRAS), 2 hours incubation, HTRF phospho-ERK1/2; read-out: Kuramochi pERK EC50
Experimental: (§1) Compounds were tested in a 384-well assay format for their ability to inhibit cellular pERK in Kuramochi (WT KRAS), MIA-PaCa-2 (KRAS-G12C), ASPC-1 (KRAS G12D), and NCI-H441 (KRAS-G12V) cell-lines. Compounds were serially diluted (1:3) in DMSO. On day −1, 80 μL of cells were plated per well in the 384 well tissue-culture plates (Greiner: Cat #781080) to seed 5000 cells per wells of AsPC-1 or 7500 cells of MIA-PaCa-2, NCI-H441, and Kuramochi cell lines in RPMI (Corning: Cat #10-040-CM) with 10% fetal bovine serum (FBS) (HyClone: Cat #SH30071-03) and 1× penicillin-streptomycin-glutamate (PSG) (Corning: Cat #30-009-CI) for […] and Kuramochi cell lines and DMEM (Corning: Cat #15-018-CM) with 10% FBS and 1×PSG for MIA-PaCa-2 cell line. The plates were then incubated overnight at 37° C. and 5% CO2. On day 0, 400 nL of compound/well was added into the cell plates and mixed 5 times by pipetting using a Beckmann Biomek FX. The cell plates were then incubated for 2 hours at 37° C. and 5% CO2. HTRF Advanced Phospho-ERK1/2 (THR202/TYR204) Detection Kits (PerkinElmer: Cat #64AERPEG) were used to prepare the lysis and detection solution according to manufacturer protocol. Following the 2 hour incubation, 70 μL of medium was aspirated from the plates and 10 uL of lysis and detection solution was added to the plates using a Biotek EL406 washer and dispenser. Plates were sealed and stored overnight at room temperature. HTRF ratio (665 nm/615 nm) was read by Envision multimode reader (PerkinElmer) the next day. The TR-FRET ratios were normalized to a positive (saturating concentration of known inhibitor) and negative (DMSO) control and plotted against the log of compound concentration.

[2] = test system: cellular pERK in MIA-PaCa-2 (KRAS-G12C) cells; experiment: Cell based pERK assay, MIA-PaCa-2; conditions: Homo sapiens; MIA-PaCa-2 (KRAS-G12C), 2 hours incubation, HTRF phospho-ERK1/2; read-out: MIAPaCa2 pERK EC50
Experimental: as §1

[3] = test system: cellular pERK in NCI-H441 (KRAS-G12V) cells; experiment: Cell based pERK assay, NCI-H441; conditions: Homo sapiens; NCI-H441 (KRAS-G12V), 2 hours incubation, HTRF phospho-ERK1/2; read-out: H441 PERK EC50
Experimental: as §1

[4] = test system: cellular pERK in ASPC-1 (KRAS G12D) cells; experiment: Cell based pERK assay, ASPC-1; conditions: Homo sapiens, ASPC1; ASPC-1 (KRAS G12D), 2 hours incubation, HTRF phospho-ERK1/2; read-out: AsPC1 pERK EC50
Experimental: as §1

SMILES	EC50 [1] [nM]	EC50 [2] [nM]	EC50 [3] [nM]	EC50 [4] [nM]
CCc1c(F)ccc2cc(O)cc(-c3nc4c5c(nc(OC[C@@]67CCCN6C[C@H](F)C7)nc5c3F)N3C[C@@]5(F)CC[C@H](N5)[C@H]3CC4)c12 [Example 2-1, 4-((5aR,6S,9S)-1,9-difluoro-12-(((2R,7aS)-2-fluorotetrahydro-1H-pyrrolizin-7a(5H)-yl)methoxy)-4,5,5a,6,7,8,9,10-octahydro-3,10a,11,13,14-pentaaza-6,9-methanonaphtho[1,8-ab]heptalen-2-yl)-5-ethyl-6-fluoronaphthalen-2-ol]	1.41	3.01	4.44	55.5
C#Cc1c(F)ccc2cc(O)cc(-c3nc4c5c(nc(OC[C@@]67CCCN6C[C@H](F)C7)nc5c3F)N3C[C@@]5(F)CC[C@](F)(N5)[C@H]3CC4)c12 [Example 3-1, 5-ethynyl-6-fluoro-4-((5aR,6R,9S)-1,6,9-trifluoro-12-(((2R,7aS)-2-fluorotetrahydro-1H-pyrrolizin-7a(5H)-yl)methoxy)-4,5,5a,6,7,8,9,10-octahydro-3,10a,11,13,14-pentaaza-6,9-methanonaphtho[1,8-ab]heptalen-2-yl)naphthalen-2-ol]	1.13	0.89	1.25	3.27
C#Cc1c(F)ccc2cc(O)cc(-c3nc4c5c(nc(OC[C@@]67CCCN6C[C@H](F)C7)nc5c3F)N3C[C@@]5(F)CC[C@](F)(N5)[C@H]3CCC4)c12 [Example 4-1, 5-ethynyl-6-fluoro-4-((6aR,7R,10S)-1,7,10-trifluoro-13-(((2R,7aS)-2-fluorotetrahydro-1H-pyrrolizin-7a(5H)-yl)methoxy)-5,6,6a,7,8,9,10,11-octahydro-4H-3,11a,12,14,15-pentaaza-7,10-methanocyclohepta[4,5]cycloocta[1,2,3-de]naphthalen-2-yl)naphthalen-2-ol]	1.4	0.49	0.17	1.34
C#Cc1c(F)ccc2cc(N)cc(-c3nc4c5c(nc(OCC67CCCN6CCC7)nc5c3F)N3C[C@@]5(F)CC[C@](F)(N5)[C@H]3CCC4)c12 [Example 4-6, 5-ethynyl-6-fluoro-4-((6aR,7R,10S)-1,7,10-trifluoro-13-((tetrahydro-1H-pyrrolizin-7a(5H)-yl)methoxy)-5,6,6a,7,8,9,10,11-octahydro-4H-3,11a,12,14,15-pentaaza-7,10-methanocyclohepta[4,5]cycloocta[1,2,3-de]naphthalen-2-yl)naphthalen-2-amine]	1.98	1.35	6.45	30.9
C#Cc1c(F)ccc2cc(O)cc(-c3nc4c5c(nc(OCC67CCCN6CCC7)nc5c3F)N3C[C@@]5(F)CC[C@](F)(N5)[C@@H]3[C@@H](C)C4)c12 [Example 4-10, 5-ethynyl-6-fluoro-4-((5S,5aS,6R,9S)-1,6,9-trifluoro-5-methyl-12-((tetrahydro-1H-pyrrolizin-7a(5H)-yl)methoxy)-4,5,5a,6,7,8,9,10-octahydro-3,10a,11,13,14-pentaaza-6,9-methanonaphtho[1,8-ab]heptalen-2-yl)naphthalen-2-ol]	11.6	0.243	3.2	5.93
C#Cc1c(F)ccc2cc(O)cc(-c3nc4c5c(nc(OC[C@@]67CCCN6C[C@H](F)C7)nc5c3F)N3C[C@@]5(F)CC[C@H](N5)[C@H]3C=C4C)c12 [Example 4-15, 4-((5aR,6S,9S)-1,9-difluoro-12-(((2R,7aS)-2-fluorotetrahydro-1H-pyrrolizin-7a(5H)-yl)methoxy)-4-methyl-5a,6,7,8,9,10-hexahydro-3,10a,11,13,14-pentaaza-6,9-methanonaphtho[1,8-ab]heptalen-2-yl)-5-ethynyl-6-fluoronaphthalen-2-ol]	4.42	4.05	21.8	98.3
C#Cc1c(F)ccc2cc(O)cc(-c3nc4c5c(nc(OC[C@@]67CCCN6C[C@H](F)C7)nc5c3F)N3C[C@@]5(F)CC[C@](F)(N5)[C@H]3CO4)c12 [Example 4-16, 5-ethynyl-6-fluoro-4-((5aR,6R,9S)-1,6,9-trifluoro-12-(((2R,7aS)-2-fluorotetrahydro-1H-pyrrolizin-7a(5H)-yl)methoxy)-5a,6,7,8,9,10-hexahydro-5H-4-oxa-3,10a,11,13,14-pentaaza-6,9-methanonaphtho[1,8-ab]heptalen-2-yl)naphthalen-2-ol]	147	157	> 770	> 1000
C#Cc1c(F)ccc2cc(N)cc(-c3nc4c5c(nc(OC[C@@]67CCCN6C[C@H](F)C7)nc5c3F)N3C[C@@]5(F)CC[C@](F)(N5)[C@@H]3CC4)c12 [Example 4-19, 5-ethynyl-6-fluoro-4-((5aS,6R,9S)-1,6,9-trifluoro-12-(((2R,7aS)-2-fluorotetrahydro-1H-pyrrolizin-7a(5H)-yl)methoxy)-4,5,5a,6,7,8,9,10-octahydro-3,10a,11,13,14-pentaaza-6,9-methanonaphtho[1,8-ab]heptalen-2-yl)naphthalen-2-amine]	0.92	0.235	1.08	5.17
C#Cc1c(F)ccc2cc(O)cc(-c3nc4c5c(nc(OC[C@@]67CCCN6C[C@H](F)C7)nc5c3F)N3C[C@@]5(F)CC[C@](F)(N5)[C@@H]3CC4)c12 [Example 4-20, 5-ethynyl-6-fluoro-4-((5aS,6R,9S)-1,6,9-trifluoro-12-(((2R,7aS)-2-fluorotetrahydro-1H-pyrrolizin-7a(5H)-yl)methoxy)-4,5,5a,6,7,8,9,10-octahydro-3,10a,11,13,14-pentaaza-6,9-methanonaphtho[1,8-ab]heptalen-2-yl)naphthalen-2-ol]	1.8	0.081	0.616	0.735
Oc1cc(-c2nc3c4c(nc(OCC56CCCN5CCC6)nc4c2F)N2C[C@@]4(F)CC[C@](F)(N4)[C@H]2CCC3)c2c(Cl)c(F)ccc2c1 [Example 4-27, 5-chloro-6-fluoro-4-((6aR,7R,10S)-1,7,10-trifluoro-13-((tetrahydro-1H-pyrrolizin-7a(5H)-yl)methoxy)-5,6,6a,7,8,9,10,11-octahydro-4H-3,11a,12,14,15-pentaaza-7,10-methanocyclohepta[4,5]cycloocta[1,2,3-de]naphthalen-2-yl)naphthalen-2-ol]	2.58	3.03	13.8	64.3
C#Cc1c(F)ccc2cc(N)cc(-c3nc4c5c(nc(OCC67CCCN6CCC7)nc5c3F)N3C[C@@]5(F)CC[C@](F)(N5)[C@@H]3CC4)c12 [Example 4-34, 5-ethynyl-6-fluoro-4-((5aS,6R,9S)-1,6,9-trifluoro-12-((tetrahydro-1H-pyrrolizin-7a(5H)-yl)methoxy)-4,5,5a,6,7,8,9,10-octahydro-3,10a,11,13,14-pentaaza-6,9-methanonaphtho[1,8-ab]heptalen-2-yl)naphthalen-2-amine]	3.34	0.511	2.75	20.9
C#Cc1c(F)c(F)cc2cc(N)cc(-c3nc4c5c(nc(OCC67CCCN6CCC7)nc5c3F)N3C[C@@]5(F)CC[C@](F)(N5)[C@@H]3CC4)c12 [Example 4-35, 5-ethynyl-6,7-difluoro-4-((5aS,6R,9S)-1,6,9-trifluoro-12-((tetrahydro-1H-pyrrolizin-7a(5H)-yl)methoxy)-4,5,5a,6,7,8,9,10-octahydro-3,10a,11,13,14-pentaaza-6,9-methanonaphtho[1,8-ab]heptalen-2-yl)naphthalen-2-amine]	3.69	0.787	5.32	33.7
C#Cc1c(F)ccc2cc(N)cc(-c3nc4c5c(nc(OC[C@@]67CCCN6CC(=C)C7)nc5c3F)N3C[C@@]5(F)CC[C@](F)(N5)[C@H]3CCC4)c12 [Example 4-38, 5-ethynyl-6-fluoro-4-((6aR,7R,10S)-1,7,10-trifluoro-13-(((S)-2-methylenetetrahydro-1H-pyrrolizin-7a(5H)-yl)methoxy)-5,6,6a,7,8,9,10,11-octahydro-4H-3,11a,12,14,15-pentaaza-7,10-methanocyclohepta[4,5]cycloocta[1,2,3-de]naphthalen-2-yl)naphthalen-2-amine]	2.69	0.134	1.01	2.2
